In patent US12655124B2, “Heterocyclic compounds as modulators of stimulator of interferon genes (STING)” (RYVU THERAPEUTICS S.A., priority 2019, dated 2026):

Columns and labels:
human STING = human STING (Homo sapiens, UniProt Q86WV6); experiment: Fluorescence Thermal Shift assay (hSTING FTS binding assay); conditions: ΔTm, STING 0.1 mg/mL, SyproOrange, 25 to 99° C.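 Also: STING preincubated with compound for 20 min in HEPES NaCl buffer pH 7.5.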
Procedure: Fluorescence Thermal Shift Assay Compounds of the present invention were tested for binding to human STING in Fluorescence Thermal Shift assay. […] Final STING concentration was 0.1 mg/mL. Thermal unfolding was performed in Real-Time PCR QuantStudio 6 Flex System (Applied Biosystems), from 25 to 99° C., with continuous ramp mode and ramp rate 0.033° C./s. The data were analyzed using Protein Thermal Shift Software (ThermoFisher).

[1] = system: CT26 murine colon carcinoma allografts; experiment: In vivo anti-tumor efficacy, CT26 allograft; design: species or system female Balb/C mice; conditions: once every fifth day on three occasions; for response of CT26 tumors to the treatment: intravenously, all dose levels
Procedure: In Vivo Anti-Tumor Efficacy The efficacy of Example 4, Example 31 and Example 57 was evaluated in established CT26 murine colon carcinoma allografts in female Balb/C mice. Compounds were formulated in 5% ethanol with 10% Captisol in PBS and administered intravenously, once every fifth day on three occasions. The solution was prepared fresh prior to each administration. […] By the end of the study there was one complete response among animals treated at 10 mg/kg of Example 4. […] By the end of the study, on day 43, there was one complete response recorded in group treated at 20 mg/kg of Example 57.

[2] = system: interferon regulatory factor (IRF) pathway in THP-1 dual cells; experiment: THP-1 Dual reporter assay, IRF pathway (luciferase); assay type: cell-based; conditions: Homo sapiens, THP1-Dual, 18 h stimulation, luminescence
Procedure: (§1) THP-1 Dual Reporter Assay
(§2) Compounds of the present invention were tested for their activity using THP-1 dual cells (Invivogen, cat no. thpd-nfis) allowing for simultaneous study of NF-κB pathway and the interferon regulatory factor (IRF) pathway. THP-1 dual cells contain luciferase reporter gene under the control of an ISG54 (interferon-stimulated gene) minimal promoter in conjunction with five interferon-stimulated response elements and a secreted embryonic alkaline phosphatase reporter gene under the control an IFN (interferon)-β minimal promoter fused to five copies of the NF-κB consensus transcriptional response element with three copies of the c-Rel binding site. Following 18 h of stimulation with STING agonist, medium was collected and transferred onto fresh cell culture plate. To verify activity of the IRF pathway, luminescence activity was measured with standard laboratory plate reader immediately after addition 10 μl of the medium to 40 or 50 μl of luminescence reagent (Invivogen, cat. No. rep-qlc2). To verify activity of NF-κB pathway, 10 or 20 μl of the medium was mixed with 80 μl of a detection medium (Invivogen, cat. No. rep-qb2) and incubated for 1 or 2 hours at 37° C. in a humidified atmosphere containing 5% CO2. Next, absorbance at 630 or 655 nm was recorded using standard laboratory plate reader.

[3] = system: NF-κB pathway in THP-1 dual cells; experiment: THP-1 Dual reporter assay, NF-κB pathway (SEAP); assay type: cell-based; conditions: Homo sapiens, THP1-Dual, 18 h stimulation, absorbance at 630 or 655 nm, read-out: THP1 Dual EC50 (μM) NFkB
Procedure: as §1, §2

human STING, sequence (Q86WV6 whole entry H232R): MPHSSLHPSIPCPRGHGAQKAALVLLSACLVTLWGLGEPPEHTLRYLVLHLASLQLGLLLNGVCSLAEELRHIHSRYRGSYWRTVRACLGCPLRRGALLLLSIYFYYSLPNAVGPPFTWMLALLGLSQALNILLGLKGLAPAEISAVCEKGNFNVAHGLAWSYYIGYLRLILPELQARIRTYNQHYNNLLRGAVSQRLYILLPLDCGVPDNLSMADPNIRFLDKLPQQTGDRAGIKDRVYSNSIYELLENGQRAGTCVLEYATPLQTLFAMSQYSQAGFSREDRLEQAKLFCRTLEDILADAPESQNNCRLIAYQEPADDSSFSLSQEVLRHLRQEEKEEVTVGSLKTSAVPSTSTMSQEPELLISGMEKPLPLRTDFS

Compound | hSTING FTS binding assay (ΔT ° C.) (human STING) | EC50 [2] [µM] | EC50 [3] [µM] | further results
Cc1ccc(N2CCC[C@H](N(Cc3ccnc(C)c3)Cc3cn(C4CC4)c4cc(N5CC[C@H](N)C(F)(F)C5)c(F)cc4c3=O)C2)cn1.Cl (single isomer, unassigned) [Example 57] | +++ (ΔTm≥20° C.) |  |  | tumor growth effect compared to the control group ([1]; 5 mg/kg intravenously): minimal tumor growth delay; tumor growth effect compared to the control group ([1]; 10 mg/kg intravenously): moderately efficacious; tumor growth effect compared to the control group ([1]; 20 mg/kg intravenously): full efficacious; complete responses by the end of the study ([1]; 20 mg/kg intravenously, day 43): one; dose dependence of the tumor response ([1]; 5, 10 and 20 mg/kg intravenously): dose dependent manner; response of CT26 tumors to the treatment [1]: responded prominently
Cc1ccc(N2CCC[C@H](N(Cc3ccnc(C)c3)Cc3cn(CCN)c4ccccc4c3=O)C2)cn1 [Example 18, 1-(2-Aminoethyl)-3-({[(3S)-1-(6-methylpyridin-3-yl)piperidin-3-yl][(2-methylpyridin-4-yl)methyl]amino}methyl)-1,4-dihydroquinolin-4-one] | + (ΔTm≤10° C.) | 1 to 10 | 1 to 10 | 
COc1cc(CN(Cc2cn(C3CC3)c3cc(F)c(F)cc3c2=O)[C@H]2CCCN(c3ccc(N)nc3)C2)ccn1.Cl [Example 4, 3-({[(3S)-1-(6-Aminopyridin-3-yl)piperidin-3-yl][(2-methoxypyridin-4-yl)methyl]amino}methyl)-1-cyclopropyl-6,7-difluoro-1,4-dihydroquinolin-4-one Hydrochloride] | +++ (ΔTm≥20° C.) |  |  | tumor growth effect compared to the control group ([1]; 7 mg/kg intravenously): efficacious and caused tumor growth delay or significant decrease of the tumor size; complete responses by the end of the study ([1]; 10 mg/kg intravenously): one; tumor growth effect compared to the control group ([1]; 10 mg/kg intravenously): efficacious and caused tumor growth delay or significant decrease of the tumor size; response of CT26 tumors to the treatment [1]: responded prominently
Cc1cc(CN(Cc2cn(C3CC3)c3cc(OCCO)c(F)cc3c2=O)[C@H]2CCCN(c3cnccn3)C2)ccn1.Cl [Example 85, 1-cyclopropyl-6-fluoro-7-(2-hydroxyethoxy)-3-({[(2-methylpyridin-4-yl)methyl][(3S)-1-(pyrazin-2-yl)piperidin-3-yl]amino}methyl)-1,4-dihydroquinolin-4-one Hydrochloride] | ++ (10<ΔTm<20° C.) | ≤ 1 | ≤ 1 | 
Cc1ccc(N2CCC[C@H](N(Cc3ccnc(C)c3)Cc3cn(C4CC4)c4cc(N5CC[C@@H](O)C5)ccc4c3=O)C2)cn1 [Example 45, 1-cyclopropyl-7-[(3R)-3-hydroxypyrrolidin-1-yl]-3-({[(3S)-1-(6-methylpyridin-3-yl)piperidin-3-yl][(2-methylpyridin-4-yl)methyl]amino}methyl)-1,4-dihydroquinolin-4-one] | +++ (ΔTm≥20° C.) | ≤ 1 | ≤ 1 | 
Cc1cc(CN(Cc2cn(C)c3cc(N4CCC(C(=O)O)CC4)ccc3c2=O)[C@H]2CCCN(c3cccnc3)C2)ccn1 [Example 46, 1-[1-methyl-3-({[(2-methylpyridin-4-yl)methyl][(3S)-1-(pyridin-3-yl)piperidin-3-yl]amino}methyl)-4-oxo-1,4-dihydroquinolin-7-yl]piperidine-4-carboxylic Acid] | ++ (10<ΔTm<20° C.) | ≥ 10 | ≥ 10 | 
Cc1ccc(N2CCC[C@H](N(Cc3ccnc(C)c3)Cc3cn(C4CC4)c4cc(OCCO)c(F)cc4c3=O)C2)cn1 [Example 47, 1-Cyclopropyl-6-fluoro-7-(2-hydroxyethoxy)-3-({[(3S)-1-(6-methylpyridin-3-yl)piperidin-3-yl][(2-methylpyridin-4-yl)methyl]amino}methyl)-1,4-dihydroquinolin-4-one] | +++ (ΔTm≥20° C.) | ≤ 1 | ≤ 1 | 
Cc1ccc(N2CCC[C@H](N(Cc3ccnc(C)c3)Cc3cn(C4CC4)c4cc(N5CCC[C@H](O)C5)c(F)cc4c3=O)C2)cn1.Cl [Example 31, 1-cyclopropyl-6-fluoro-7-[(3S)-3-hydroxypiperidin-1-yl]-3-({[(3S)-1-(6-methylpyridin-3-yl)piperidin-3-yl][(2-methylpyridin-4-yl)methyl]amino}methyl)-1,4-dihydroquinolin-4-one Hydrochloride] | +++ (ΔTm≥20° C.) |  |  | tumor growth effect compared to the control group ([1]; 7 mg/kg intravenously): slight tumor growth delay; tumor growth effect compared to the control group ([1]; 15 mg/kg intravenously): prominently efficacious; tumor growth effect compared to the control group ([1]; 30 mg/kg intravenously): prominently efficacious; complete responses by the end of the study ([1]; 30 mg/kg intravenously, day 43): two; response of CT26 tumors to the treatment [1]: responded prominently
Cc1ccc(N2CCC[C@H](N(Cc3ccnc(C)c3)Cc3cn(C4CC4)c4cc(NC(=O)CN)c(F)cc4c3=O)C2)cn1 [Example 25, 2-amino-N-[1-cyclopropyl-6-fluoro-3-({[(3S)-1-(6-methylpyridin-3-yl)piperidin-3-yl][(2-methylpyridin-4-yl)methyl]amino}methyl)-4-oxo-1,4-dihydroquinolin-7-yl]acetamide] | +++ (ΔTm≥20° C.) | ≤ 1 | ≤ 1 | 
Cc1cc(CN(Cc2cn(C(C)C)c3cc(F)c(F)cc3c2=O)[C@H]2CCCN(c3ccc(N)nc3)C2)ccn1.Cl [Example 24, 3-({[(3S)-1-(6-aminopyridin-3-yl)piperidin-3-yl][(2-methylpyridin-4-yl)methyl]amino}methyl)-6,7-difluoro-1-(propan-2-yl)-1,4-dihydroquinolin-4-one Hydrochloride] | +++ (ΔTm≥20° C.) | ≤ 1 | ≤ 1 | 
Cc1ccc(N2CCC[C@H](N(Cc3ccnc(C)c3)Cc3cn(C)c4c(OCCO)cccc4c3=O)C2)cn1 [Example 63, 8-(2-hydroxyethoxy)-1-methyl-3-({[(3S)-1-(6-methylpyridin-3-yl)piperidin-3-yl][(2-methylpyridin-4-yl)methyl]amino}methyl)-1,4-dihydroquinolin-4-one] |  | ≤ 1 | ≤ 1 | 
